Read-outs that look alike come from different tables or passages of the source. Starred links: 1 amine or outer side, 2 acyl side, 3 side chain; linkers in the order of their positions; H or OH if unused. Non-standard residues stand in square brackets, D forms with d. Residues, ends and D or L forms follow the SMILES beside them. Groups on a side chain read outwards from the residue. *: point of attachment. C18 diacid = O=C(O)CCCCCCCCCCCCCCCCC(=O)*; γGlu = O=C(O)[C@H](CCC(=O)[*:2])N[*:1]; Palmitoyl = CCCCCCCCCCCCCCCC(=O)*; AEEA = NCCOCCOCC(=O)O; Aib = CC(C)(N)C(=O)O
Tests used:
human CRF2α receptor = molecular target: T1, human CRF2α receptor (Homo sapiens, UniProt Q13324); experiment: cAMP agonism at human CRF2 α receptor in TeloHEAC cells (Example 7); assay type: cell-based; conditions: cAMP HTRF, TeloHEAC cells stably expressing human CRF2 α
T1 construct: expressed in transfected cells; host or cells: TeloHEAC
T1 sequence (Q13324 1-411): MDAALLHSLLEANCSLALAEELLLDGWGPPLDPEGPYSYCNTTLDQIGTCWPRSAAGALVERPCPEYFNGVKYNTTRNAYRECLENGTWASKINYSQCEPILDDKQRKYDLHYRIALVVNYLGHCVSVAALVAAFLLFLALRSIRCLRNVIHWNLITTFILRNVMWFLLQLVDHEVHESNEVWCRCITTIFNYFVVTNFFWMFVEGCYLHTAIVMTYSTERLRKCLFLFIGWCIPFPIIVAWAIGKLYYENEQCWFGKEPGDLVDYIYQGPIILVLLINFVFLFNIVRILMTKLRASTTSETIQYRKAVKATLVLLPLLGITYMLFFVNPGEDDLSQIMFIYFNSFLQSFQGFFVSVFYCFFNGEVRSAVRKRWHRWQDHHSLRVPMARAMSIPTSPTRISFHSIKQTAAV
Method in brief: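 Steps: thaw and wash cells; suspend in 1×HBSS, 20 mM HEPES, 0 or 0.1% HSA, 2 mM IBMX; add compound, 30 min RT; lyse with HTRF reagents, 1 h; read 665/620 nm. EC50 calculated, E% versus 1000 nM UCN2.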

CRF1R receptor = molecular target: T2, CRF1R receptor (Homo sapiens, UniProt P34998); experiment: cAMP activity at anti-target CRF1R, CHO-K1 cell line clone 2 (Example 19.10); assay type: cell-based; conditions: CRF1R CHO-K1 clone 2; for EC50: 0% HSA, read-out: EC50 [nM] 0% HSA; for Emax: 100% = Sauvagine at 100 nM
T2 construct: host or cells: CHO-K1 clone 2
T2 sequence (P34998 24-415): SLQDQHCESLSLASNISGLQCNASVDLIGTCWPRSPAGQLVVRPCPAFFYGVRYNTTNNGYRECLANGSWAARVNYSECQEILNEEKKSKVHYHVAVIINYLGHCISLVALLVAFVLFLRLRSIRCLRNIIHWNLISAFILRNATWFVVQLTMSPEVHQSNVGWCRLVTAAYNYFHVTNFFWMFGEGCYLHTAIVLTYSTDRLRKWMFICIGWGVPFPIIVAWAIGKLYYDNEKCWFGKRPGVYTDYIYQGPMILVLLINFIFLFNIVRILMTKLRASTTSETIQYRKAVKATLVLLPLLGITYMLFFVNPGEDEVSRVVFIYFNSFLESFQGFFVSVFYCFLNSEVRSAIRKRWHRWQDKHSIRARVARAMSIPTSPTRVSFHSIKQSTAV
Experimental: The CRF1R-overexpression CHO-K1 cell line clone 2 was purchased from PerkinElmer.
Cells were grown in a 10 cm dish at 37° C./5% CO2 in medium (F12 (Hams)/10% FBS/400 μg/ml G418) to near confluence. At that stage, cells were harvested, resuspended to 10 million/mL in culture medium without G418 and with 10% DMSO. 1 mL vial aliquots were slowly frozen to -80° C. in isopropanol and then transferred in liquid nitrogen for storage. These vials were used to run the experiment following the procedure reported 10 in the previous paragraph, except for the compound used in the control well to define the 100% activation (Sauvagine at 100 nM)

[1] = 0% HSA, read-out: EC50 [nM], 0% HSA
[2] = 0.1% HSA, read-out: EC50 [nM], 0.1% HSA

Row | EC50 (human CRF2α receptor; [1]) [nM] | EC50 (CRF1R receptor) [nM] | Emax (CRF1R receptor) [%] | EC50 (human CRF2α receptor; [2]) [nM] | Structure (SMILES)
1 | 0.16 | > 100 | 14.5 | – | CCCCCCCCCCCCCCCC(=O)N[C@@H](CCC(=O)NCCCC[C@H](NC(=O)[C@H](CC(C)C)NC(=O)[C@H](CCCCN)NC(=O)[C@@H](NC(=O)[C@@H]1CCCN1C(=O)[C@H](NC(=O)[C@H](CC(=O)O)NC(=O)[C@H](CC(C)C)NC(=O)[C@H](CO)NC(=O)[C@H](CC(C)C)NC(=O)[C@@H](NC(=O)[C@@H](N)[C@@H](C)CC)C(C)C)C(C)C)[C@@H](C)O)C(=O)N[C@@H](CCCCN)C(=O)N[C@@H](CCCCN)C(=O)N[C@@H](CC(C)C)C(=O)N[C@@H](CC(C)C)C(=O)N[C@@H](CCCCN)C(=O)N[C@@H](CCC(N)=O)C(=O)N[C@@H](CCC(=O)O)C(=O)N[C@@H](CCCNC(=N)N)C(=O)N[C@@H](CCCCN)C(=O)N[C@@H](CCCNC(=N)N)C(=O)N[C@@H](CCCCN)C(=O)N[C@@H](CCC(=O)O)C(=O)N[C@@H](CCCNC(=N)N)C(=O)N[C@@H](CCC(=O)O)C(=O)N[C@@H](CCC(N)=O)C(=O)N[C@@H](C)C(=O)N[C@@H](CCC(=O)O)C(=O)N[C@@H](CCCCN)C(=O)N[C@@H](C)C(=O)N[C@@H](C)C(=O)N[C@@H](CCCNC(=N)N)C(=O)N[C@H](C(=O)N[C@@H](CC(C)C)C(=O)N[C@@H](CCC(=O)O)C(=O)N[C@@H](CCCNC(=N)N)C(=O)N[C@H](C(N)=O)C(C)C)[C@@H](C)CC)C(=O)O [compound 30] (H-IVLSLD[dV]PTKLK([γGlu-Palmitoyl])KKLLKQERKRKEREQAEKAARILERV-NH2; N-terminus assumed)
2 | 0.68 | > 100 | 2.3 | 25.7 | CC[C@H](C)[C@H](N)C(=O)N[C@H](C(=O)N[C@@H](CC(C)C)C(=O)N[C@@H](CO)C(=O)N[C@@H](CC(C)C)C(=O)N[C@@H](CC(=O)O)C(=O)N[C@H](C(=O)N1CCC[C@H]1C(=O)N[C@H](C(=O)N[C@@H](CCCCN)C(=O)N[C@@H](CC(C)C)C(=O)N[C@@H](CCCCNC(=O)COCCOCCNC(=O)COCCOCCNC(=O)CC[C@H](NC(=O)CCCCCCCCCCCCCCCCC(=O)O)C(=O)O)C(=O)N[C@@H](CCC(N)=O)C(=O)N[C@H](C(=O)N[C@@H](CC(C)C)C(=O)N[C@@H](CC(C)C)C(=O)N[C@@H](CCCCN)C(=O)N[C@@H](CCC(N)=O)C(=O)N[C@@H](CCC(=O)O)C(=O)N[C@@H](CCCNC(=N)N)C(=O)N[C@@H](CCC(N)=O)C(=O)N[C@@H](CCCCN)C(=O)N[C@@H](CCCCN)C(=O)N[C@@H](CCC(N)=O)C(=O)N[C@@H](CCCNC(=N)N)C(=O)N[C@@H](CCC(=O)O)C(=O)N[C@@H](CCCCN)C(=O)N[C@@H](C)C(=O)N[C@@H](CCCCN)C(=O)N[C@H](C(=O)N[C@@H](CC(N)=O)C(=O)NC(C)(C)C(=O)N[C@@H](CCC(N)=O)C(=O)N[C@H](C(=O)N[C@@H](CC(C)C)C(=O)N[C@@H](C)C(=O)N[C@@H](CCC(N)=O)C(=O)N[C@H](C(N)=O)C(C)C)[C@@H](C)CC)[C@@H](C)O)[C@@H](C)CC)[C@@H](C)CC)C(C)C)C(C)C [compound 88] (H-IVLSLDVPIKLK([AEEA-AEEA-γGlu-C18 diacid])QILLKQERQKKQREKAKTN[Aib]QILAQV-NH2; N-terminus assumed)
3 | 0.3 | > 100 | 3.7 | 15.6 | CC[C@H](C)[C@H](N)C(=O)N[C@H](C(=O)N[C@@H](CC(C)C)C(=O)N[C@@H](CO)C(=O)N[C@@H](CC(C)C)C(=O)N[C@@H](CC(=O)O)C(=O)N[C@H](C(=O)N1CCC[C@H]1C(=O)N[C@H](C(=O)N[C@@H](CCCCN)C(=O)N[C@@H](CC(C)C)C(=O)N[C@@H](CCCCNC(=O)COCCOCCNC(=O)COCCOCCNC(=O)CC[C@H](NC(=O)CCCCCCCCCCCCCCCCC(=O)O)C(=O)O)C(=O)N[C@@H](CCC(N)=O)C(=O)N[C@H](C(=O)N[C@@H](CC(C)C)C(=O)N[C@@H](CC(C)C)C(=O)N[C@@H](CCCCN)C(=O)N[C@@H](CCC(N)=O)C(=O)N[C@@H](CCC(=O)O)C(=O)N[C@@H](CCCNC(=N)N)C(=O)N[C@@H](CCC(N)=O)C(=O)N[C@@H](CCCCN)C(=O)N[C@@H](CCCCN)C(=O)N[C@@H](CCC(N)=O)C(=O)N[C@@H](CCCNC(=N)N)C(=O)N[C@@H](CCC(=O)O)C(=O)N[C@@H](CCC(N)=O)C(=O)N[C@@H](C)C(=O)N[C@@H](CCCCN)C(=O)N[C@H](C(=O)N[C@@H](CC(N)=O)C(=O)NC(C)(C)C(=O)N[C@@H](CCC(N)=O)C(=O)N[C@H](C(=O)N[C@@H](CC(C)C)C(=O)N[C@@H](C)C(=O)N[C@@H](CCC(N)=O)C(=O)N[C@H](C(N)=O)C(C)C)[C@@H](C)CC)[C@@H](C)O)[C@@H](C)CC)[C@@H](C)CC)C(C)C)C(C)C [compound 89] (H-IVLSLDVPIKLK([AEEA-AEEA-γGlu-C18 diacid])QILLKQERQKKQREQAKTN[Aib]QILAQV-NH2)
4 | 0.38 | > 100 | 2.3 | – | CC[C@H](C)[C@H](N)C(=O)N[C@H](C(=O)N[C@@H](CC(C)C)C(=O)N[C@@H](CO)C(=O)N[C@@H](CC(C)C)C(=O)N[C@@H](CC(=O)O)C(=O)N[C@H](C(=O)N1CCC[C@H]1C(=O)N[C@H](C(=O)N[C@@H](CCCCN)C(=O)N[C@@H](CC(C)C)C(=O)N[C@@H](CCCCNC(=O)COCCOCCNC(=O)COCCOCCNC(=O)CC[C@H](NC(=O)CCCCCCCCCCCCCCCCC(=O)O)C(=O)O)C(=O)N[C@@H](CCC(N)=O)C(=O)N[C@H](C(=O)N[C@@H](CC(C)C)C(=O)N[C@@H](CC(C)C)C(=O)N[C@@H](CCCCN)C(=O)N[C@@H](CCC(N)=O)C(=O)N[C@@H](CCC(=O)O)C(=O)N[C@@H](CCCNC(=N)N)C(=O)N[C@@H](CCC(N)=O)C(=O)N[C@@H](CCCCN)C(=O)N[C@@H](CCCCN)C(=O)N[C@@H](CCC(=O)O)C(=O)N[C@@H](CCCNC(=N)N)C(=O)N[C@@H](CCC(=O)O)C(=O)N[C@@H](CCC(N)=O)C(=O)N[C@@H](C)C(=O)N[C@@H](CCC(=O)O)C(=O)N[C@H](C(=O)N[C@@H](CC(N)=O)C(=O)N[C@@H](CCCCN)C(=O)N[C@@H](CCC(N)=O)C(=O)N[C@H](C(=O)N[C@@H](CC(C)C)C(=O)N[C@@H](C)C(=O)N[C@@H](CCC(N)=O)C(=O)N[C@H](C(N)=O)C(C)C)[C@@H](C)CC)[C@@H](C)O)[C@@H](C)CC)[C@@H](C)CC)C(C)C)C(C)C [compound 96] (H-IVLSLDVPIKLK([AEEA-AEEA-γGlu-C18 diacid])QILLKQERQKKEREQAETNKQILAQV-NH2; N-terminus assumed)
